The test system of series [1] is HBV. Put plainly: In-vitro anti-HBV activity in stable HBV-producing cell line (HepG2.2.15), HBV DNA in culture fluid by qPCR. The series is classed as cell-based. The note with it: Hepatitis B virus, 168 h; 500 nmol final concentration, HepG2.2.15 cells, HBV DNA in culture media on day 7 post seeding, vs DMSO control; read-out: HBV (% Inh.) (500 nmol). Here is the method:
In-Vitro Anti-HBV Activity of Compounds in Stable HBV-Producing Cell Line (HepG2.2.15)
HBV DNA contents in cell culture fluid were detected by the qPCR-based assay and percents of HBV inhibition by compounds (% Inh) were calculated. Specific procedures are as follows:
HepG2.2.15 cells were seeded into each well of 96-well plates, 40,000 cells per well. Cells were treated with cell culture medium containing compounds 24 hours after cell seeding. Each compound to detected percent inhibition was in duplicate and the final concentration of each compound was 500 nmol in each well. The compound-containing mediums were refreshed on day 4 post cell seeding. Culture media were collected from the HepG2.2.15 plates on day 7 post cell seeding followed by HBV DNA extraction.
HBV DNA extraction: using QIAamp 96 DNA Blood Kit (QIAGEN 51161).
PCR for quantification: PCR mix was prepared according to PCR system; PCR mix was dispensed to 384-well optical reaction plates (special for quantification); The standard diluted proportionally was added; The sample was added; The plates were sealed with optical adhesive film; PCR system was performed according to programs.
Percent of HBV inhibition of DNA replication by compound was calculated using the following equation: % Inh.=[1-HBV DNA quantity of sample/HBV DNA quantity of DMSO control]*100. II. Assay Results
Background: Real-time PCR tracks product formation cycle by cycle.

A short description of series [2]: Test compounds' PK assay in ICR mice. The series is classed as in vivo. The note with it: mouse, plasma; for AUC(0-t): AUC in 0-24 hours; for AUC(0-inf): AUC in 0 hour to infinite time; for Vd: read-out: Vss; for bioavailability: read-out: F (absolute bioavailability). Here is the method:
The test compounds were poured into ICR mice stomach through mouth with 10 mg/kg or administered 2 mg/kg or 10 mg/kg to ICR mice by tail-intravenous injection. Blood sample of orbital vein was taken at 0.083, 0.25, 0.5, 1, 2, 4, 6, 8 and 24 hours after administration, and collected in anticoagulation tube added with EDTA-K2. The test compounds were extracted from plasma samples and chromatographed on a tandem mass spectrometer. Quantitation was performed using multiple reaction monitoring (MRM). Pharmacokinetic parameters were calculated using WinNonlin 6.1 software with non compartment model.

By Cmax is commonly meant the maximum level reached in the sampled fluid or tissue. What is called Tmax is the time at which the peak concentration occurs. Broadly, the clearance is the rate of elimination divided by the concentration. The half-life is the time in which the quantity being followed falls by half. Read a low half-life as rapid decline. A word on the AUC(0-t): it is exposure summed from dosing to a finite time, without extrapolation to infinity. Higher therefore signals high exposure. What is called AUC(0-inf) is total exposure, with the tail of the curve extrapolated. Read a high AUC(0-inf) as more exposure. The term bioavailability denotes dose-corrected exposure relative to a reference, in per cent.

Molecules are shown by their SMILES. Like-named read-outs stand apart in the source and are kept apart here.

With `CCOC(=O)C1=C(CN2CCOC(CCC(=O)O)C2)NC(c2nccs2)=NC1c1ccc(F)cc1Br` (centres unmarked) [Example 129, 3-(4-((6-(2-bromo-4-fluorophenyl)-5-(ethoxycarbonyl)-2-(thiazol-2-yl)-3,6-dihydropyrimidin-4-yl)methyl)morpholin-2-yl)propanoic acid], the inhibition at 0.5 µM in series [1] was 92%. Besides, in series [2] (iv, 2 mg/kg), the peak level (Cmax) was 3860 ng/mL, the Tmax stood at 0.08 h, the clearance was 20.3 mL/min/kg and the half-life was 2.42 h. Besides, in series [2] (iv, 2 mg/kg), the AUC(0-t) was 1630 ng·h/mL, the AUC(0-inf) turned out to be 1640 ng·h/mL and the Vd is 0.9 L/kg. In series [2] (po, 10 mg/kg), the concentration peaked (Cmax) at 8610 ng/mL, the Tmax is 0.08 h, the half-life was 6.62 h and the exposure AUC(0-t) is 5330 ng·h/mL. In addition, in series [2] (po, 10 mg/kg), the area under the curve AUC(0-inf) was determined as 5350 ng·h/mL and the bioavailability was determined as 65.2%.
For `CCOC(=O)C1=C(CN2CCOC(CC(=O)O)C2)NC(c2nccs2)=NC1c1ccc(F)cc1Br` (centres unmarked) [Example 74, 2-(4-((6-(2-bromo-4-fluorophenyl)-5-(ethoxycarbonyl)-2-(thiazol-2-yl)-3,6-dihydropyrimidin-4-yl)methyl)morpholin-2-yl)acetic acid], the inhibition at 0.5 µM in series [1] came out at 91.7%. In series [2] (iv, 10 mg/kg), this molecule had a clearance of 15.5 mL/min/kg, a half-life of 1.02 h, an AUC(0-t) of 10600 ng·h/mL and an AUC(0-inf) of 11200 ng·h/mL. In addition, in series [2] (iv, 10 mg/kg), the Vd was 0.82 L/kg. Also, in series [2] (po, 10 mg/kg), the peak level (Cmax) was 7330 ng/mL, the Tmax came to 0.25 h, the half-life is 1.18 h and the AUC(0-t) was found to be 7890 ng·h/mL. For the same molecule, in series [2] (po, 10 mg/kg), the AUC(0-inf) turned out to be 8160 ng·h/mL and the bioavailability was 74.2%.

For the origin of these results see patent US9340538B2, “Dihydropyrimidine compounds and their application in pharmaceuticals” (SUNSHINE LAKE PHARMA CO., LTD., priority 2013, dated 2016).
